Tests used:
[1] = tested on: primary human total T-cells; assay: T-cell activation assessed by CD69 expression; format: cell-based
How it was run: (§1)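 Readouts are fold change versus compound-free cells under the same stimulation: plate-bound anti-CD3 (OKT3, 10 μg/mL coating) alone or with soluble anti-CD28 at 5 μg/mL, for 48 h. Isolated human total T cells (1×10^5/well) got inhibitor 1 h beforehand at concentrations such as 10, 1.11 or 0.123 μM. Measured: GM-CSF/IFNγ/TNFα secretion, surface CD69, proliferation by dye dilution.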

[2] = tested on: primary human total T-cells; assay: T-cell activation assessed by cell proliferation (Cell Trace Violet); format: cell-based
How it was run: as §1

[3] = CD3/CD28 stimulation, CD4 T-cells, read-out: % CD69+ (CD4)
[4] = CD3/CD28 stimulation, CD8 T-cells, read-out: % CD69+ (CD8)
[5] = CD3 alone stimulation, CD4 T-cells, read-out: % CD69+ (CD4)
[6] = CD3 alone stimulation, CD8 T-cells, read-out: % CD69+ (CD8)
[7] = CD3/CD28 stimulation, CD4 T-cells, read-out: % CP (cell proliferation) (CD4)
[8] = CD3/CD28 stimulation, CD8 T-cells, read-out: % CP (cell proliferation) (CD8)
[9] = CD3 alone stimulation, CD8 T-cells, read-out: % CP (cell proliferation) (CD8)

| SMILES | fold induction at 1.11 µM [1, 3] | fold induction at 10 µM [1, 3] | fold induction at 1.11 µM [1, 4] | fold induction at 10 µM [1, 4] | fold induction at 1.11 µM [1, 5] | fold induction at 10 µM [1, 5] | fold induction at 1.11 µM [1, 6] | fold induction at 10 µM [1, 6] | fold induction at 1.11 µM [2, 7] | fold induction at 10 µM [2, 7] | fold induction at 1.11 µM [2, 8] | fold induction at 10 µM [2, 8] | fold induction at 1.11 µM [2, 9] | fold induction at 10 µM [2, 9] |
| --- | --- | --- | --- | --- | --- | --- | --- | --- | --- | --- | --- | --- | --- | --- |
| C[C@H](Sc1nncn1C)c1cccc(NC(=O)c2cc(C(=O)N3CC[C@H](O)C3)ccn2)c1 [Compound 140, 4-[[(3S)-3-hydroxypyrrolidin-1-yl]carbonyl]-N-[3-[(1S)-1-[(4-methyl-4H-1,2,4-triazol-3-yl)sulfanyl]ethyl]phenyl]pyridine-2-carboxamide] | 1.4 to 1.6 | > 1.6 | 1.2 to 1.4 | 1.2 to 1.4 | > 1.6 | > 1.6 | 1.4 to 1.6 | 1.4 to 1.6 | > 4 | > 4 | > 4 | > 4 | > 4 | > 4 |
| C[C@H](Cc1nncn1C)c1cccc(NC(=O)c2cccc(CCO)n2)c1 [Compound 202, 6-(2-hydroxyethyl)-N-[3-[(2R)-1-(4-methyl-4H-1,2,4-triazol-3-yl)propan-2-yl]phenyl]pyridine-2-carboxamide] | ≤ 1.2 | 1.2 to 1.4 | ≤ 1.2 | ≤ 1.2 | ≤ 1.2 | 1.2 to 1.4 | ≤ 1.2 | ≤ 1.2 | < 2 | 3.01 to 4 | < 2 | 2.01 to 3 | < 2 | < 2 |
| C[C@H](Cc1nncn1C)c1cccc(N2Cc3c(ccnc3C3CC3)C2=O)c1 [Compound 257, 4-cyclopropyl-2-[3-[(1R)-1-methyl-2-(4-methyl-1,2,4-triazol-3-yl)ethyl]phenyl]-3H-pyrrolo[3,4-c]pyridin-1-one] | ≤ 1.2 | 1.4 to 1.6 | ≤ 1.2 | 1.2 to 1.4 | ≤ 1.2 | 1.2 to 1.4 | ≤ 1.2 | 1.2 to 1.4 | 2.01 to 3 | > 4 | < 2 | 3.01 to 4 | < 2 | 3.01 to 4 |
| Cn1cnnc1[C@@H]1C[C@@H]1c1cccc(N2Cc3c(cccc3C(F)(F)F)C2=O)c1 [Compound 282, 2-(3-((1S,2R)-2-(4-methyl-4H-1,2,4-triazol-3-yl)cyclopropyl)phenyl)-4-(trifluoromethyl)isoindolin-1-one] | ≤ 1.2 | 1.2 to 1.4 | ≤ 1.2 | 1.2 to 1.4 | ≤ 1.2 | 1.2 to 1.4 | ≤ 1.2 | ≤ 1.2 | < 2 | > 4 | < 2 | 2.01 to 3 | < 2 | 3.01 to 4 |

From patent US20220324835A1 (Nurix Therapeutics, Inc., priority 2018, published 2022)
